The values that follow come from ChEMBL document CHEMBL3507680, “University of Dundee, Gates Library screen for HepG2 cell viability”.

Molecules are shown by their SMILES. Values joined by “and” are separate entries in the source; they are usually repeats but may differ in a detail not shown here. Equal values may be shown once.

The nature of data set [1]: Human HepG2 cell viability assay in 384 well format. The format is toxicity, cell-based. Details: dose 125 nL, time 70.5 hour; cytotoxicity at 70.5 h: concentration not given beside the values. The note with it: for Inhibition: hepg2, 70.5 h, 70.5 h; for cytotoxicity at 70.5 h: HepG2 cells, read-out: Inhibition.
Data set [2] in a line: Human HepG2 cell viability dose-response assay. The format is toxicity, cell-based.

A word on the Inhibition: it is the change of the read-out against control, counted positive when it falls. Turning to `CC1=Nc2c(c(=O)[nH]n2C2CCCC2)C(c2ccc(C(=O)O)cc2)S1` (stereo unspecified), in data set [1], the Inhibition is -12.72% and -17.34%.

With `CC1=Nc2c(c(=O)[nH]n2C2CCCC2)C(c2cccnc2)S1` (stereo unspecified), in data set [1], the Inhibition is -2.319% and 7.616%.

As for `CCOC(=O)CC(c1cccc(OC)c1OC)c1c(C)[nH][nH]c1=O` (stereo unspecified), the Inhibition in data set [1] was -11.36% and -3.674%.

For `CCS(=O)(=O)N1CCc2ccc(NC(=O)Nc3ccc(F)cc3F)cc21`, the cytotoxicity at 70.5 h in data set [1] was 61%. In data set [2], the BOTTOM is -8.818 and -13.27; the HILLSLOPE is 1.034 and 0.9987; the TOP is 101.1 and 100; the pXC50 was 4.643 and 4.737.

Regarding `CCC(=O)Nc1ccc2c(c1)CN(C(=O)c1ccco1)CC2`, the cytotoxicity at 70.5 h in data set [1] is 66.1%. In data set [2], this compound showed a BOTTOM of 0, an HILLSLOPE of 0, a TOP of 0 and a pXC50 of less than 4.53.

For `CCN(CC)c1nc(Nc2cccc(C(C)O)c2)nc2ccccc12` (stereo unspecified), in data set [1], the cytotoxicity at 70.5 h was determined as 65%. For the same compound, in data set [2], the BOTTOM was -6.556 and -9.604; the HILLSLOPE is 3.369 and 3.239; the TOP is 95.36 and 94.66; the pXC50 is 5.073 and 5.085.

Regarding `CCCNc1cc(-c2c[nH]nc2C2CCN(C(=O)C3CCC3)C2)ccn1` (stereo unspecified), in data set [1], the cytotoxicity at 70.5 h is 96.6%. For the same compound, in data set [2], the HILLSLOPE is 3.782 and 3.402; the TOP is 97.22 and 96.9; the pXC50 is 6.441 and 6.523.

As to `COc1cc(OC)c(C2Nc3cc(Cl)ccc3C3=NCCN32)cc1OC` (stereo unspecified), the cytotoxicity at 70.5 h in data set [1] is 73.2%. Moreover, in data set [2], the HILLSLOPE is 0.8757 and 0.9571; the TOP was 114.1 and 108.1; the pXC50 is 4.986 and 5.042.

For the compound `CC(C)(C)c1cn2c(n1)C(CNCc1cnn3ccccc13)CCC2` (stereo unspecified), the cytotoxicity at 70.5 h in data set [1] is 71.2%. In data set [2], the BOTTOM is -11.51 and -11.88; the HILLSLOPE is 1.1 and 1.076; the TOP is reported as 100; the pXC50 was 5.268 and 5.282.

As for `CC(C)(C)c1cn2c(n1)C(CNCc1ccccn1)CCC2` (stereo unspecified), in data set [1], the cytotoxicity at 70.5 h came out at 70.8%. Further, in data set [2], the BOTTOM was -8.279 and -9.133; the HILLSLOPE is 1.336 and 1.545; the TOP is 100 and 90.93; the pXC50 was 5.194 and 5.33.

Consider `COc1ccc(C2CCCN2c2nnc(C)s2)c(OC)c1` (stereo unspecified), for which, in data set [1], the cytotoxicity at 70.5 h worked out at 64.4%. Also, in data set [2], the BOTTOM was 0, the HILLSLOPE was 0, the TOP is reported as 0 and the pXC50 is less than 4.53.

In the case of `Cc1cc(C(=O)NCC(O)c2c(Cl)cccc2Cl)nn1C` (stereo unspecified), the cytotoxicity at 70.5 h in data set [1] turned out to be 71.4%. In data set [2], the BOTTOM is recorded as 0, the HILLSLOPE amounted to 0, the TOP amounted to 0 and the pXC50 was less than 4.53.

With `Cc1nc(CN2CCCC(N(C)Cc3cnn(C)c3)C2)no1` (stereo unspecified), the cytotoxicity at 70.5 h in data set [1] is 89.5%. In data set [2], this compound returned a BOTTOM of 0, an HILLSLOPE of 0, a TOP of 0 and a pXC50 of less than 4.53.

As to `O=C(Cn1cnc2ccccc2c1=O)Nc1cc(C2CC2)n[nH]1`, the cytotoxicity at 70.5 h in data set [1] stood at 107%. Further, in data set [2], the BOTTOM is -7.289 and -9.306; the HILLSLOPE was 2.407 and 2.226; the TOP was 101 and 100.4; the pXC50 is 6.137 and 6.176.

Regarding `COCCn1c2c(ccc1=O)CC(NCc1cnn(C)c1)CC2` (stereo unspecified), in data set [1], the cytotoxicity at 70.5 h came out at 101%. Besides, in data set [2], the BOTTOM amounted to 0, the HILLSLOPE is listed as 0, the TOP came to 0 and the pXC50 is listed as less than 4.53.

Take `CCCn1ncc(-c2ccnc(NC3CC(C)(C)NC(C)(C)C3)n2)c1C`: the cytotoxicity at 70.5 h in data set [1] amounted to 80.1%. In data set [2], the BOTTOM was 0, the HILLSLOPE was determined as 0, the TOP is recorded as 0 and the pXC50 is on record as less than 4.53.

As for `CNc1cc(C)nc(NCc2cc(C)cc3c(C)c(C)[nH]c23)n1`, in data set [1], the cytotoxicity at 70.5 h amounted to 67.2%. In data set [2], the BOTTOM was -6.522 and -8.24; the HILLSLOPE was 2.624 and 2.705; the TOP was 104.6 and 104.5; the pXC50 is 5.463 and 5.453.

For `CCc1[nH]c2c(CNc3nc(C)cc(NC)n3)cc(C)cc2c1C`, the cytotoxicity at 70.5 h in data set [1] amounted to 99.9%. Further, in data set [2], the BOTTOM is -3.977 and -5.003; the HILLSLOPE is 3.393 and 3.303; the TOP was 104.5 and 105; the pXC50 was 5.219 and 5.191.

Regarding `COCc1cc(N(C)Cc2c(C)nn(C)c2C)n2nccc2n1`, the cytotoxicity at 70.5 h in data set [1] was 64.9%. In addition, in data set [2], the BOTTOM stood at 0, the HILLSLOPE was 0, the TOP came to 0 and the pXC50 is less than 4.53.

As to `COc1ccc(OCCN2CCC(N3CCNC3=O)CC2)cc1`, the cytotoxicity at 70.5 h in data set [1] turned out to be 80.5%. Moreover, in data set [2], the HILLSLOPE is 1.006 and 1.131; the TOP was 99.89 and 100; the pXC50 was 4.882 and 4.993.

For `Cc1cnc(C(=O)N2CCCC(n3ccnc3C)C2)cn1` (stereo unspecified), the cytotoxicity at 70.5 h in data set [1] was 61.9%. For the same compound, in data set [2], the BOTTOM worked out at 0, the HILLSLOPE was found to be 0, the TOP was determined as 0 and the pXC50 is less than 4.53.

Consider `CCn1nnc2cc(C(=O)N3CCCC3Cn3cc(C)cn3)ccc21` (stereo unspecified), for which the cytotoxicity at 70.5 h in data set [1] is -19.4%.

Consider `Cc1cnn(CC2CCCN2Cc2nc3ccccc3n2C)c1` (stereo unspecified), for which the cytotoxicity at 70.5 h in data set [1] is -10.6%.

`COCCN1CCN(Cc2cccc(C(N)=O)c2)CC1C` (stereo unspecified): the cytotoxicity at 70.5 h in data set [1] came to 71.2%. Moreover, in data set [2], the BOTTOM worked out at 0, the HILLSLOPE is listed as 0, the TOP stood at 0 and the pXC50 is recorded as less than 4.53.

As for `CC(O)CN1CCC(CNCc2c[nH]nc2C(C)(C)C)CC1` (stereo unspecified), the cytotoxicity at 70.5 h in data set [1] came out at 70.3%. In data set [2], this compound returned a BOTTOM of 0, an HILLSLOPE of 0, a TOP of 0 and a pXC50 of less than 4.53.

For the compound `Cc1cc(NC(=O)CN2CCn3c(nnc3C(C)C)C2)no1`, the cytotoxicity at 70.5 h in data set [1] is 67.5%. In data set [2], the BOTTOM is 0, the HILLSLOPE is given as 0, the TOP turned out to be 0 and the pXC50 is recorded as less than 4.53.

Regarding `Cl.Clc1cccc(N[C@H]2CCCN[C@H]2Cc2ccccc2)c1`, the cytotoxicity at 70.5 h in data set [1] worked out at 104%. In data set [2], the BOTTOM is 3.022 and 5.09; the HILLSLOPE is 10.78 and 7.141; the TOP was 102.1 and 102.6; the pXC50 is 5.327 and 5.334.

Turning to `CN1CCC(c2n[nH]c3ncccc23)C1.O=CO` (stereo unspecified), in data set [1], the cytotoxicity at 70.5 h was 81.6%. Further, in data set [2], the HILLSLOPE was 2.128 and 2.318; the TOP is given as 100; the pXC50 is 4.946 and 4.92.

On to `C/N=C1\c2cc3cc(OC)ccc3n2CCN1Cc1ccccc1.O=C(O)C(F)(F)F`, for which the cytotoxicity at 70.5 h in data set [1] turned out to be 68.5%. Also, in data set [2], the BOTTOM is -10.9 and -4.699; the HILLSLOPE was 1.421 and 1.435; the TOP was found to be 100; the pXC50 was 5.16 and 5.151.
